Earlier results, collected in US20210085711A1 (Japan Tobacco Inc., priority 2017, published 2021).

Test system: patients
Conditions: investigation up to the approval; cited from earlier work

sodium ferrous citrate
expression rate of nausea and vomiting: about 13%
